In PubChem BioAssay (NCI):
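Protocol summary: plate cells (96-well), add compound at 5 concentrations, incubate 48 h, interpolate endpoints linearly. At the TGI there is no net growth.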

Experiments:
Assay in all cases: NCI tumour cell line growth inhibition, 48 h
[1] = system: A549 NSCLC
[2] = system: ACHN renal
[3] = system: EKVX NSCLC
[4] = system: M14 melanoma
[5] = system: MALME-3M melanoma
[6] = system: MCF7 breast
[7] = system: MDA-MB-231 breast
[8] = system: NCI-H226 lung
[9] = system: OVCAR-8 ovarian
[10] = system: PC-3 prostate
[11] = system: SNB-75 CNS

| Compound | TGI [1] | TGI [2] | TGI [3] | TGI [4] | TGI [5] | TGI [6] | TGI [7] | TGI [8] | TGI [9] | TGI [10] | TGI [11] |
| --- | --- | --- | --- | --- | --- | --- | --- | --- | --- | --- | --- |
| CC(C)(C)c1cc(-c2ccc(-c3cc(C(C)(C)C)c(O)c(C(C)(C)C)c3)cc2)cc(C(C)(C)C)c1O | > 100 µM | > 100 µM | > 100 µM | > 100 µM | > 100 µM | > 100 µM | > 100 µM | > 100 µM | > 100 µM | > 100 µM | > 100 µM |
| COC1(OC)N=C(N)C2(C#N)C(C)CC(=O)N(N(C)C)C12C#N (configuration not stated) | > 100 µM | > 100 µM | > 100 µM | > 100 µM | > 100 µM | > 100 µM | > 100 µM | > 100 µM | > 100 µM | > 100 µM | > 100 µM |
| COC(=O)C1OC(O[C@H]2CC[C@]3(C)[C@H]4CC=C5[C@@H]6CC(C)(C)CC[C@]6(C(=O)OC)[C@H](O)C[C@@]5(C)[C@]4(C)CC[C@H]3C2(C)C)C(O)C(O)C1O (some centres not stated) | 17.4 µM | 23.8 µM | 21.4 µM | 18.3 µM | 25.4 µM | 23.5 µM | 21.8 µM | 31.7 µM | 27.3 µM | 19.8 µM | 28.1 µM |
| COc1nn(Cc2ccccc2F)c2ccc([N+](=O)[O-])cc12 | > 100 µM | > 100 µM | > 100 µM | > 100 µM | > 100 µM | > 100 µM | > 100 µM | > 100 µM | > 100 µM | > 100 µM | > 100 µM |
| CC1=C/C(=N/N2C(=O)/C(=C/c3ccc(Cl)cc3)N=C2c2ccccc2)CC(C)(C)C1 | > 100 µM | > 100 µM | > 100 µM | > 100 µM | > 100 µM | > 100 µM | > 100 µM | > 100 µM | > 100 µM | > 100 µM | 93.6 µM |
| N[C@@H]1c2c(Br)sc(Br)c2[C@H](O)[C@@H]1O | > 100 µM | > 100 µM | > 100 µM | > 100 µM | > 100 µM | > 100 µM | > 100 µM | > 100 µM | > 100 µM | > 100 µM | > 100 µM |
| Cn1c(N2CCCC2)c(C=O)c(=O)n(C)c1=O | > 100 µM | > 100 µM | > 100 µM | > 100 µM | > 100 µM | > 100 µM | > 100 µM | > 100 µM | > 100 µM | > 100 µM | 93 µM |
| Cn1c(-c2csc(-c3ccc(Cl)cc3)n2)n[nH]c1=S | > 100 µM | 34.8 µM | > 100 µM | > 100 µM | 69.6 µM | > 100 µM | 69.4 µM | 57.3 µM | 47.2 µM | > 100 µM | 39.8 µM |
| COc1ccc(-c2cc(-c3ccc(Nc4ccnc5cc(C(F)(F)F)ccc45)cc3)[nH]c(=O)c2C#N)c2ccccc12 | > 100 µM | > 81.5 µM | > 100 µM | > 70.7 µM | > 63.2 µM | > 100 µM | > 59.8 µM | > 100 µM | > 100 µM | > 100 µM | 29.9 µM |
| O=S(=O)(O)CCS | > 100 µM | > 100 µM | > 100 µM | > 100 µM | > 100 µM | > 100 µM | > 100 µM | > 100 µM | > 100 µM | > 100 µM | > 100 µM |
| O=c1c2cc(Br)ccc2oc2nc3n(c(=O)c12)CCCS3 | > 100 µM | > 100 µM | > 100 µM | > 100 µM | > 100 µM | > 100 µM | > 100 µM | > 100 µM | > 100 µM | > 100 µM | > 100 µM |
| Cc1nc2c(nc1C)-c1c(c3c(n1Cc1ccccc1)C(=O)CCC3)C(=O)C2=O | > 100 µM |  | > 100 µM | 91.1 µM | 14.2 µM | 5.39 µM | > 100 µM | 48.4 µM | > 100 µM | 29.4 µM | 6.56 µM |
| NC(=O)c1n[nH]n(-c2ccccc2)c1=O | > 100 µM | > 100 µM | > 100 µM | > 100 µM | > 100 µM | > 100 µM | > 100 µM | > 100 µM | > 100 µM | > 100 µM | > 100 µM |
| COC1=CC(=O)C(O)=C(C[C@@]2(C)[C@@H]3CCC[C@H](COC(=O)CCCCCNC(=O)OC(C)(C)C)[C@@]3(C)CC[C@@H]2C)C1=O | > 10 µM | > 10 µM | > 10 µM | > 10 µM | > 10 µM | > 10 µM | > 10 µM | > 10 µM | > 10 µM | > 10 µM | > 10 µM |
| COC(=O)[C@H]1[C@H](C(=O)OC)[C@@H](C)c2c(ccc3c2[nH]c2ccccc23)[C@@H]1C | > 100 µM | > 100 µM | > 100 µM | > 100 µM | > 100 µM | > 100 µM | > 100 µM | > 100 µM | > 100 µM | > 100 µM | 68.7 µM |
| C=CCN1C(=O)/C(=C/c2ccc(C)cc2)N=C1SC/C=C/C | > 100 µM | > 100 µM | > 100 µM | > 100 µM | 93.4 µM | > 100 µM | > 100 µM | > 100 µM | > 100 µM | > 100 µM | 70.1 µM |
| C=C1C(=O)OC2/C=C(\C)C(O)CC(O)C(C)(O)CC(OC(=O)/C(C)=C/C)C12 (configuration not stated) | > 100 µM | > 100 µM | > 100 µM | > 100 µM | > 100 µM | > 100 µM | > 100 µM | > 100 µM | > 100 µM | > 100 µM | > 94.2 µM |
| O=C(CCCCCCCCC(=O)NN1C(=O)/C(=C\c2ccc(O)c(O)c2)SC1c1c(O)ccc2ccccc12)NN1C(=O)C(=Cc2ccc(O)c(O)c2)SC1c1c(O)ccc2ccccc12 (configuration not stated) | > 37.1 µM | > 100 µM | > 100 µM | > 48.5 µM | 74 µM | > 100 µM | > 87.7 µM | > 100 µM | > 100 µM | > 100 µM | > 100 µM |
| CC(SC(=S)N1CCCCC1)C(=O)Nc1nnc(-c2ccc(Cl)cc2)o1 (configuration not stated) | > 100 µM | > 100 µM |  | 53.7 µM | 72.6 µM | 76.1 µM | > 100 µM | > 100 µM | > 100 µM | 82.9 µM | > 100 µM |
